The assay concerns the target T1, MAP4K1 (HPK1) (Homo sapiens, UniProt Q92918).
T1 construct: purchased Thermo Fisher Scientific (Life Technologies) SelectScreen
Briefly: SelectScreen LanthaScreen. To be noted: read-out: % displacement. The format is binding. Summed up: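 NU5455 was profiled across the SelectScreen Broad panel of kinase activity and binding assays. Z'LYTE reactions such as CSF1R ran at apparent Km ATP, while the Adapta CAMK1 assay used ATP listed as 10. Values are given as percent.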

Structures are written as SMILES.

T1 sequence (Q92918 whole entry): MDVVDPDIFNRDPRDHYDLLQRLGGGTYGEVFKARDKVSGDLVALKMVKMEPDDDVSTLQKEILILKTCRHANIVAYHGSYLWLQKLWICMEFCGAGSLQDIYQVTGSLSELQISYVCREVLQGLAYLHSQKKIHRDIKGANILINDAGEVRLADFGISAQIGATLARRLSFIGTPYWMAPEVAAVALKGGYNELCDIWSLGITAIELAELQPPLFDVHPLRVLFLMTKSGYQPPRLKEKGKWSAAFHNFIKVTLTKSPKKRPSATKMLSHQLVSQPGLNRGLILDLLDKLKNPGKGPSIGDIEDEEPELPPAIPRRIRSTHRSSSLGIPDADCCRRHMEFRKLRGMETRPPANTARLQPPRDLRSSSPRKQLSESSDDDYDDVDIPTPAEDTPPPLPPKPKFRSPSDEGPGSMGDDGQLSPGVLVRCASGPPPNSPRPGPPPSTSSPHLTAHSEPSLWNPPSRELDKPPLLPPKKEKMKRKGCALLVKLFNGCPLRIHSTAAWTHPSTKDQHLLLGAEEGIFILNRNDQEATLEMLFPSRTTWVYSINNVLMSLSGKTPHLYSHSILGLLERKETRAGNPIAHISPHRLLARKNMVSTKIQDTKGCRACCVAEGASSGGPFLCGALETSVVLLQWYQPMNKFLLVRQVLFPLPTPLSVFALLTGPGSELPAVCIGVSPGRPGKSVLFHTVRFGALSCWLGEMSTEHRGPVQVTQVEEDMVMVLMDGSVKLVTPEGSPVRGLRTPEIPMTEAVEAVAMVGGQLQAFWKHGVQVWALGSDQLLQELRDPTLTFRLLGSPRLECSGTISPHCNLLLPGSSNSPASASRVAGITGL

Take `CN(C(=O)CN1CCOCC1)c1ccc2sc3c(-c4cccc5c(=O)cc(N6CC7CCC(C6)O7)oc45)cccc3c2c1` [NU5455]: the inhibition at 1 µM turned out to be 1.6%.

For the origin of these results see publication PMC6934184, “Selective DNA-PKcs inhibition extends the therapeutic index of localized radiotherapy and chemotherapy” (The Journal of Clinical Investigation, 2019).
